In US20100317528A1, “HERBICIDE CONTAINING BENZOYLPYRAZOLE COMPOUND” (ISHIHARA SANGYO KAISHA, LTD., priority 2006, published 2010):

Columns and labels:
Assay type in all cases: in vivo
[1] = tested on: barnyardgrass (Echinochloa crus-galli L.); test: Test Example 1: foliar treatment, upland pot test, barnyardgrass; details: 31 g/ha active ingredient, observed 17th to 25th day after application; for inhibition at 31 g/ha: Echinochloa crus-galli, read-out: Growth inhibition rate (%) Barnyardgrass
Excerpt: (§1) Upland field soil was put into a 1/170,000 hectare pot, and seeds of various plants were sown. When the respective plants reached predetermined leaf stage ((1) barnyardgrass (Echinochloa crus-galli L.): 1.0 to 3.0 leaf stage, (2) crabgrass (Digitaria sanguinalis L.): 1.0 to 3.0 leaf stage, (3) green foxtail (Setaria viridis L.): 1.0 to 3.0 leaf stage, (4) redroot pigweed (Amaranthus retroflexus L.): cotyledon stage to 2.0 leaf stage, (5) prickly sida (Sida spinosa L.): cotyledon stage to 1.0 leaf stage, (6) velvetleaf (Abutilon theophrasti MEDIC.): 0.1 to 1.5 leaf stage, (7) rice (Oryza sativa L.): 1.0 to 3.0 leaf stage, (8) wheat (Triticum spp.): 1.7 to 3.4 leaf stage, (9) corn (Zea mays L.): 2.0 to 3.5 leaf stage, (10) soybean (Glycine max Merr.): primary leaf stage to 0.4 leaf stage), wettable powders or emulsifiable concentrates of the compounds of the above formula (I) prepared in accordance with a conventional preparation method, were weighed so that the active ingredients became the prescribed amounts, and diluted with water in an amount corresponding to 500 liter per 1 hectare (containing 0.1 vol % of “KUSARINOH”, manufactured by NIHON NOHYAKU CO., LTD. as an agricultural spreader). The spray solutions thus prepared were applied for foliar treatment by a small sprayer.
(§2) On the 17th to 25th day after application, the state of growth of the respective plants was visually observed, and the herbicidal effect was evaluated by a growth inhibition rate (%) of 0 (equivalent to the non-treated area) to 100% (complete kill).

[2] = tested on: crabgrass (Digitaria sanguinalis L.); test: Test Example 1: foliar treatment, upland pot test, crabgrass; details: 31 g/ha active ingredient, observed 17th to 25th day after application; for inhibition at 31 g/ha: Digitaria sanguinalis, read-out: Growth inhibition rate (%) Crabgrass
Excerpt: as §1, §2

[3] = tested on: green foxtail (Setaria viridis L.); test: Test Example 1: foliar treatment, upland pot test, green foxtail; details: 31 g/ha active ingredient, observed 17th to 25th day after application; for inhibition at 31 g/ha: Setaria viridis, read-out: Growth inhibition rate (%) Green foxtail
Excerpt: as §1, §2

[4] = tested on: redroot pigweed (Amaranthus retroflexus L.); test: Test Example 1: foliar treatment, upland pot test, redroot pigweed; details: 31 g/ha active ingredient, observed 17th to 25th day after application; for inhibition at 31 g/ha: Amaranthus retroflexus, read-out: Growth inhibition rate (%) Redroot pigweed
Excerpt: as §1, §2

[5] = tested on: velvetleaf (Abutilon theophrasti MEDIC.); test: Test Example 1: foliar treatment, upland pot test, velvetleaf; details: 31 g/ha active ingredient, observed 17th to 25th day after application; for inhibition at 31 g/ha: Abutilon theophrasti, read-out: Growth inhibition rate (%) Velvetleaf
Excerpt: as §1, §2

rice (Oryza sativa L.) [6] = test: Test Example 1: foliar treatment, upland pot test, rice; details: 31 g/ha active ingredient, observed 17th to 25th day after application; for inhibition at 31 g/ha: Oryza sativa, read-out: Growth inhibition rate (%) Rice
Excerpt: as §1, §2

wheat (Triticum spp.) [7] = test: Test Example 1: foliar treatment, upland pot test, wheat; details: 31 g/ha active ingredient, observed 17th to 25th day after application; for inhibition at 31 g/ha: Triticum, read-out: Growth inhibition rate (%) Wheat
Excerpt: as §1, §2

corn (Zea mays L.) [8] = test: Test Example 1: foliar treatment, upland pot test, corn; details: 31 g/ha active ingredient, observed 17th to 25th day after application; for inhibition at 31 g/ha: Zea mays, read-out: Growth inhibition rate (%) Corn
Excerpt: as §1, §2

[9] = tested on: soybean (Glycine max Merr.); test: Test Example 1: foliar treatment, upland pot test, soybean; details: 31 g/ha active ingredient, observed 17th to 25th day after application
Excerpt: as §1, §2

[10] = tested on: barnyardgrass (Echinochloa crus-galli L.); test: Test Example 2: soil application on the day after sowing, barnyardgrass; details: 250 g/ha active ingredient, observed 19th to 28th day after application; for inhibition at 250 g/ha: Echinochloa crus-galli, read-out: Growth inhibition rate (%) Barnyardgrass
Excerpt: (§3) Upland field soil was put into a 1/170,000 hectare pot, and seeds of various plants barnyardgrass (Echinochloa crus-galli L.), crabgrass (Digitaria sanquinalis L.), green foxtail (Setaria viridis L.), redroot pigweed (Amaranthus retroflexus L.), prickly sida (Sida spinosa L.), velvetleaf (Abutilon theophrasti MEDIC.), rice (Oryza sativa L.), wheat (Triticum spp.), corn (Zea mays L.) and soybean (Glycine max Merr.)) were sown. On the day after sowing, wettable powders or emulsifiable concentrates of the compounds of the above formula (I) prepared in accordance with a conventional preparation method, were weighed so that the active ingredients became the prescribed amounts, and diluted with water in an amount corresponding to 500 liter per 1 hectare, followed by soil application with a small sprayer.
(§4) On the 19th to 28th day after the application, the state of growth of the respective plants was visually observed, and the herbicidal effect was evaluated by a growth inhibition rate (%) of from 0 (equivalent to the non-treated area) to 100% (complete kill).

[11] = tested on: crabgrass (Digitaria sanquinalis L.); test: Test Example 2: soil application on the day after sowing, crabgrass; details: 250 g/ha active ingredient, observed 19th to 28th day after application; for inhibition at 250 g/ha: Digitaria, read-out: Growth inhibition rate (%) Crabgrass
Excerpt: as §3, §4

[12] = tested on: green foxtail (Setaria viridis L.); test: Test Example 2: soil application on the day after sowing, green foxtail; details: 250 g/ha active ingredient, observed 19th to 28th day after application; for inhibition at 250 g/ha: Setaria viridis, read-out: Growth inhibition rate (%) Green foxtail
Excerpt: as §3, §4

[13] = tested on: redroot pigweed (Amaranthus retroflexus L.); test: Test Example 2: soil application on the day after sowing, redroot pigweed; details: 250 g/ha active ingredient, observed 19th to 28th day after application; for inhibition at 250 g/ha: Amaranthus retroflexus, read-out: Growth inhibition rate (%) Redroot pigweed
Excerpt: as §3, §4

[14] = tested on: prickly sida (Sida spinosa L.); test: Test Example 2: soil application on the day after sowing, prickly sida; details: 250 g/ha active ingredient, observed 19th to 28th day after application; for inhibition at 250 g/ha: Sida spinosa, read-out: Growth inhibition rate (%) Prickly sida
Excerpt: as §3, §4

[15] = tested on: velvetleaf (Abutilon theophrasti MEDIC.); test: Test Example 2: soil application on the day after sowing, velvetleaf; details: 250 g/ha active ingredient, observed 19th to 28th day after application; for inhibition at 250 g/ha: Abutilon theophrasti, read-out: Growth inhibition rate (%) Velvetleaf
Excerpt: as §3, §4

rice (Oryza sativa L.) [16] = test: Test Example 2: soil application on the day after sowing, rice; details: 250 g/ha active ingredient, observed 19th to 28th day after application; for inhibition at 250 g/ha: Oryza sativa, read-out: Growth inhibition rate (%) Rice
Excerpt: as §3, §4

wheat (Triticum spp.) [17] = test: Test Example 2: soil application on the day after sowing, wheat; details: 250 g/ha active ingredient, observed 19th to 28th day after application; for inhibition at 250 g/ha: Triticum, read-out: Growth inhibition rate (%) Wheat
Excerpt: as §3, §4

corn (Zea mays L.) [18] = test: Test Example 2: soil application on the day after sowing, corn; details: 250 g/ha active ingredient, observed 19th to 28th day after application; for inhibition at 250 g/ha: Zea mays, read-out: Growth inhibition rate (%) Corn
Excerpt: as §3, §4

[19] = tested on: soybean (Glycine max Merr.); test: Test Example 2: soil application on the day after sowing, soybean; details: 250 g/ha active ingredient, observed 19th to 28th day after application; for inhibition at 250 g/ha: Glycine max, read-out: Growth inhibition rate (%) Soybean
Excerpt: as §3, §4

[20] = tested on: prickly sida (Sida spinosa L.); test: Test Example 1: foliar treatment, upland pot test, prickly sida; details: 31 g/ha active ingredient, observed 17th to 25th day after application; for inhibition at 31 g/ha: Sida spinosa, read-out: Growth inhibition rate (%) Prickly sida
Excerpt: as §1, §2

| Compound | Growth inhibition rate (%) Barnyardgrass [1] | Growth inhibition rate (%) Crabgrass [2] | Growth inhibition rate (%) Green foxtail [3] | Growth inhibition rate (%) Redroot pigweed [4] | Growth inhibition rate (%) Velvetleaf [5] | Growth inhibition rate (%) Rice (rice (Oryza sativa L.) [6]) | Growth inhibition rate (%) Wheat (wheat (Triticum spp.) [7]) | Growth inhibition rate (%) Corn (corn (Zea mays L.) [8]) | Growth inhibition rate (%) Barnyardgrass [10] | Growth inhibition rate (%) Crabgrass [11] | Growth inhibition rate (%) Green foxtail [12] | Growth inhibition rate (%) Redroot pigweed [13] | Growth inhibition rate (%) Prickly sida [14] | Growth inhibition rate (%) Velvetleaf [15] | Growth inhibition rate (%) Rice (rice (Oryza sativa L.) [16]) | Growth inhibition rate (%) Wheat (wheat (Triticum spp.) [17]) | Growth inhibition rate (%) Corn (corn (Zea mays L.) [18]) | inhibition at 31 g/ha [1] | inhibition at 31 g/ha [2] | inhibition at 31 g/ha [3] | also measured |
| --- | --- | --- | --- | --- | --- | --- | --- | --- | --- | --- | --- | --- | --- | --- | --- | --- | --- | --- | --- | --- | --- |
| Cc1c(C(=O)c2cnn(C)c2O)ccc(S(C)(=O)=O)c1OC(C)C [compound 145] | 70% | 60% | 75% | 90% | 85% | 60% | 0% | 0% | 60% | 90% | 30% | 60% | 60% | 40% | 0% | 0% | 0% | – | – | – | Growth inhibition rate (%) Soybean [9]: 70%; Growth inhibition rate (%) Soybean [19]: 0% |
| COC(=O)c1c(S(C)(=O)=O)ccc(C(=O)c2cnn(C)c2O)c1C [compound 126] | – | – | – | – | – | – | – | – | – | – | – | – | – | – | – | – | – | 95% | 80% | 100% | inhibition at 31 g/ha [4]: 100%; inhibition at 31 g/ha [20]: 90%; inhibition at 31 g/ha [5]: 100%; inhibition at 31 g/ha (rice (Oryza sativa L.) [6]): 100%; inhibition at 31 g/ha (wheat (Triticum spp.) [7]): 0%; inhibition at 31 g/ha (corn (Zea mays L.) [8]): 5%; inhibition at 250 g/ha [10]: 90%; inhibition at 250 g/ha [11]: 100%; inhibition at 250 g/ha [12]: 70%; inhibition at 250 g/ha [13]: 100%; inhibition at 250 g/ha [14]: 70%; inhibition at 250 g/ha [15]: 70%; inhibition at 250 g/ha (rice (Oryza sativa L.) [16]): 95%; inhibition at 250 g/ha (wheat (Triticum spp.) [17]): 10%; inhibition at 250 g/ha (corn (Zea mays L.) [18]): 0%; inhibition at 250 g/ha [19]: 60% |
| COCCOc1c(S(C)(=O)=O)ccc(C(=O)c2c(C)nn(C(C)C)c2O)c1C [compound 260] | 95% | 80% | 70% | 90% | 70% | 70% | 0% | 0% | 100% | 100% | 100% | 100% | 60% | 70% | 100% | 20% | 60% | – | – | – | Growth inhibition rate (%) Prickly sida [20]: 30%; Growth inhibition rate (%) Soybean [9]: 40% |
| COC(=O)Cc1c(S(C)(=O)=O)ccc(C(=O)c2cnn(C)c2O)c1C [compound 156] | 75% | 90% | 70% | 70% | 80% | 70% | 0% | 0% | 60% | 95% | 50% | 100% | 80% | 80% | 60% | 0% | 0% | – | – | – | Growth inhibition rate (%) Prickly sida [20]: 60%; Growth inhibition rate (%) Soybean [19]: 0% |
| CCn1ncc(C(=O)c2ccc(S(C)(=O)=O)c(C(=O)OC)c2C)c1O [compound 127] | – | – | – | – | – | – | – | – | – | – | – | – | – | – | – | – | – | 90% | 90% | 90% | inhibition at 31 g/ha [4]: 100%; inhibition at 31 g/ha [20]: 80%; inhibition at 31 g/ha [5]: 100%; inhibition at 31 g/ha (rice (Oryza sativa L.) [6]): 90%; inhibition at 31 g/ha (wheat (Triticum spp.) [7]): 0%; inhibition at 31 g/ha (corn (Zea mays L.) [8]): 40%; inhibition at 250 g/ha [10]: 85%; inhibition at 250 g/ha [11]: 100%; inhibition at 250 g/ha [12]: 100%; inhibition at 250 g/ha [13]: 100%; inhibition at 250 g/ha [14]: 60%; inhibition at 250 g/ha [15]: 70%; inhibition at 250 g/ha (rice (Oryza sativa L.) [16]): 70%; inhibition at 250 g/ha (wheat (Triticum spp.) [17]): 10%; inhibition at 250 g/ha (corn (Zea mays L.) [18]): 0%; inhibition at 250 g/ha [19]: 50% |
| CCOc1c(S(C)(=O)=O)ccc(C(=O)c2cnn(C)c2O)c1C [compound 144] | – | – | – | – | – | – | – | – | – | – | – | – | – | – | – | – | – | 98% | 95% | 100% | inhibition at 31 g/ha [4]: 100%; inhibition at 31 g/ha [20]: 100%; inhibition at 31 g/ha [5]: 100%; inhibition at 31 g/ha (rice (Oryza sativa L.) [6]): 75%; inhibition at 31 g/ha (wheat (Triticum spp.) [7]): 20%; inhibition at 31 g/ha (corn (Zea mays L.) [8]): 10%; inhibition at 250 g/ha [10]: 80%; inhibition at 250 g/ha [11]: 100%; inhibition at 250 g/ha [12]: 70%; inhibition at 250 g/ha [13]: 75%; inhibition at 250 g/ha [14]: 50%; inhibition at 250 g/ha [15]: 50%; inhibition at 250 g/ha (rice (Oryza sativa L.) [16]): 70%; inhibition at 250 g/ha (wheat (Triticum spp.) [17]): 0%; inhibition at 250 g/ha (corn (Zea mays L.) [18]): 0%; inhibition at 250 g/ha [19]: 0% |
